# Reference: patent publication US10759781B2, “Substituted guanidine derivatives” (UBE INDUSTRIES, LTD., priority 2015, dated 2020)
# Structures can show the parent of a compound that is named as a salt.
# Target: T1, Human VAP-1 enzyme (Homo sapiens, UniProt Q16853)
# T1 construct: purchased R&D Systems, Inc
# T1 sequence (Q16853 1-763): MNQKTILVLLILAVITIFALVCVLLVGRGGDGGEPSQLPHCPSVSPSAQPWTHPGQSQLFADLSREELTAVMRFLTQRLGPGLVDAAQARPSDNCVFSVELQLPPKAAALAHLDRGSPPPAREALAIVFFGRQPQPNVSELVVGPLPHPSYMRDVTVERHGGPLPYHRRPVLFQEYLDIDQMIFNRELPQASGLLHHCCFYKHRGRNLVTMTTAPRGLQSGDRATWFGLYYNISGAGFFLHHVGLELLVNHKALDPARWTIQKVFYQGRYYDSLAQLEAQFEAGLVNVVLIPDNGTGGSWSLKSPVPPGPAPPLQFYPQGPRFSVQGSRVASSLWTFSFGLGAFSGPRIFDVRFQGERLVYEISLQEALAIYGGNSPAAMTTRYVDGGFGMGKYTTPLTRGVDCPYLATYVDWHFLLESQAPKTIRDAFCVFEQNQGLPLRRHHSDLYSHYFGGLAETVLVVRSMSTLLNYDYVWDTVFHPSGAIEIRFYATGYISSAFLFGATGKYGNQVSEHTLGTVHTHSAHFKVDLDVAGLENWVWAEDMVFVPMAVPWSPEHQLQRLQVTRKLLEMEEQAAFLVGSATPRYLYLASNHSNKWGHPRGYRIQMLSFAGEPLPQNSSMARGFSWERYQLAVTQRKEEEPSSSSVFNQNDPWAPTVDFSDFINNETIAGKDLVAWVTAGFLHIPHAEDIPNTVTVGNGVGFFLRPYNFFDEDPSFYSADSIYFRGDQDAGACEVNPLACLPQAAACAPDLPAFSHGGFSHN
# Assay: Human VAP-1 enzyme inhibition test
# Type: biochemical
# Settings: 1 h; compound 30 nM; 14C-benzylamine 100 μM; read-out: inhibition ratio (human VAP-1 enzyme)
# Procedure: Human VAP-1 enzyme inhibition test
# This test was conducted by modifying the method of P. H. Yu et al. (Diabetologia 40 1243 (1997)). Human VAP-1 enzyme (R&D Systems, Inc.) was pre-incubated in a 96-well plate with the compound dissolved in dimethylsulfoxide at room temperature for 20 minutes. Next, in a solution to the final volume of 200 μL, the enzyme reaction solution was incubated with ^14C-benzylamine (final concentration 100 μM) at 37° C. for 1 hour. The reaction was terminated by the addition of 100 μL of 2 M citric acid solution to the reaction solution. The oxidative product was extracted using a toluene/ethyl acetate mixture and the radioactivity was measured with a liquid scintillation counter. The inhibition ratio of the compound was calculated using the following equation. Inhibition ratio={1−[VAP-1 enzyme activity after treatment with the compound]/[VAP-1 enzyme activity in the presence of dimethylsulfoxide alone without the compound]}×100
row,inhibition at 0.03 µM [%],SMILES
1,≥ 50,"CN(CCON=C1CCN(c2ncc(-c3cccc(COC(=O)NC(=N)N)c3F)cn2)CC1)S(C)(=O)=O [Example 157, 2-Fluoro-3-[2-(4-{[2-(N-methylmethylsulfonamido)ethoxy]imino}piperidin-1-yl)pyrimidin-5-yl]benzyl carbamimidoylcarbamate hydrochloride]"
2,≥ 50,"N=C(N)NC(=O)OCc1cccc(-c2cnc(N3CCC(=NOCCN)CC3)nc2)c1F [Example 164, 3-(2-{4-[(2-Aminoethoxy)imino]piperidin-1-yl}pyrimidin-5-yl)-2-fluorobenzyl carbamimidoylcarbamate]"
3,≥ 50,"N=C(N)NC(=O)OCc1cccc(-c2cnc(N3CCC(=NOCc4cnn(C5CCCCO5)c4)CC3)nc2)c1F (stereo not shown) [Example 172, 2-Fluoro-3-{2-[4-({[1-(tetrahydropyran-2-yl)-1H-pyrazol-4-yl]methoxy}imino)piperidin-1-yl]pyrimidin-5-yl}benzyl carbamimidoylcarbamate]"
4,≥ 50,"N=C(N)NC(=O)OCc1cccc(-c2cnc(N3CCC(=NOCCN4CCOC4=O)CC3)nc2)c1F [Example 179, 2-Fluoro-3-[2-(4-{[2-(2-oxooxazolidin-3-yl)ethoxy]imino}piperidin-1-yl)pyrimidin-5-yl]benzyl carbamimidoylcarbamate]"
5,≥ 50,"N=C(N)NC(=O)OCc1cccc(-c2cnc(N3CCC(=NOCCN4CCOCC4=O)CC3)nc2)c1F [Example 180, 2-Fluoro-3-[2-(4-{[2-(3-oxomorpholino)ethoxy]imino}piperidin-1-yl)pyrimidin-5-yl]benzyl carbamimidoylcarbamate]"
6,≥ 50,"CON=C1CN(c2ncc(-c3cccc(COC(=O)NC(=N)N)c3F)cn2)C1 [Example 184, 2-Fluoro-3-{2-[3-(methoxyimino)azetidin-1-yl]pyrimidin-5-yl}benzyl carbamimidoylcarbamate 1/2 L-tartrate]"
7,≥ 50,"CCON=C1CN(c2ncc(-c3cccc(COC(=O)NC(=N)N)c3F)cn2)C1 [Example 188, 3-{2-[3-(Ethoxyimino)azetidin-1-yl]pyrimidin-5-yl}-2-fluorobenzyl carbamimidoylcarbamate 1/2 L-tartrate]"
8,≥ 50,"O=C(O)C(O)C(O)C(=O)O.[2H]C([2H])([2H])ON=C1CN(c2ncc(-c3cccc(COC(=O)NC(=N)N)c3F)cn2)C1 [Example 192, 2-Fluoro-3-(2-{3-[(methoxy-d3)imino]azetidin-1-yl}pyrimidin-5-yl)benzyl carbamimidoylcarbamate 1/2 L-tartrate]"
9,≥ 50,"O=C(O)/C=C\C(=O)O.[2H]C([2H])([2H])ON=C1CN(c2ncc(-c3cccc(COC(=O)NC(=N)N)c3F)cn2)C1 [Example 194, 2-Fluoro-3-(2-{3-[(methoxy-d3)imino]azetidin-1-yl}pyrimidin-5-yl)benzyl carbamimidoylcarbamate maleate]"
10,≥ 50,"O=C(O)CCC(=O)O.[2H]C([2H])([2H])ON=C1CN(c2ncc(-c3cccc(COC(=O)NC(=N)N)c3F)cn2)C1 [Example 195, 2-Fluoro-3-(2-{3-[(methoxy-d3)imino]azetidin-1-yl}pyrimidin-5-yl)benzyl carbamimidoylcarbamate 1/2 succinate]"
11,≥ 50,"N=C(N)NC(=O)OCc1cccc(-c2cnc(N3CC(=NOCCF)C3)nc2)c1F [Example 196, 2-Fluoro-3-(2-{3-[(2-fluoroethoxy)imino]azetidin-1-yl}pyrimidin-5-yl)benzyl carbamimidoylcarbamate 1/2 L-tartrate]"
12,≥ 50,"O=C(O)C(O)C(O)C(=O)O.[2H]C([2H])([2H])ON=C1CN(c2ncc(-c3cccc(COC(=O)NC(=N)N)c3F)cc2F)C1 [Example 204, 2-Fluoro-3-(5-fluoro-6-{3-[(methoxy-d3)imino]azetidin-1-yl}pyridin-3-yl)benzyl carbamimidoylcarbamate 1/2 L-tartrate]"
13,≥ 50,"O=C(O)/C=C\C(=O)O.[2H]C([2H])([2H])ON=C1CN(c2ncc(-c3cccc(COC(=O)NC(=N)N)c3F)cc2F)C1 [Example 206, 2-Fluoro-3-(5-fluoro-6-{3-[(methoxy-d3)imino]azetidin-1-yl}pyridin-3-yl)benzyl carbamimidoylcarbamate maleate]"
14,≥ 50,"O=C(O)CCC(=O)O.[2H]C([2H])([2H])ON=C1CN(c2ncc(-c3cccc(COC(=O)NC(=N)N)c3F)cc2F)C1 [Example 207, 2-Fluoro-3-(5-fluoro-6-{3-[(methoxy-d3)imino]azetidin-1-yl}pyridin-3-yl)benzyl carbamimidoylcarbamate 1/2 succinate]"

row,SMILES,inhibition at 0.03 µM [%]
1,"CNCCON=C1CCN(c2ncc(-c3cccc(COC(=O)NC(=N)N)c3F)cn2)CC1 [Example 162, 2-Fluoro-3-[2-(4-{[2-(methylamino)ethoxy]imino}piperidin-1-yl)pyrimidin-5-yl]benzyl carbamimidoylcarbamate dihydrochloride]",≥ 50

# Target: T2, Rat Plasma VAP-1 (Rattus norvegicus, UniProt O08590)
# T2 construct: from tissue; host or cells: plasma of SD male rats (7-12 weeks old) after oral dosing
# T2 sequence (O08590 28-763 limits assumed): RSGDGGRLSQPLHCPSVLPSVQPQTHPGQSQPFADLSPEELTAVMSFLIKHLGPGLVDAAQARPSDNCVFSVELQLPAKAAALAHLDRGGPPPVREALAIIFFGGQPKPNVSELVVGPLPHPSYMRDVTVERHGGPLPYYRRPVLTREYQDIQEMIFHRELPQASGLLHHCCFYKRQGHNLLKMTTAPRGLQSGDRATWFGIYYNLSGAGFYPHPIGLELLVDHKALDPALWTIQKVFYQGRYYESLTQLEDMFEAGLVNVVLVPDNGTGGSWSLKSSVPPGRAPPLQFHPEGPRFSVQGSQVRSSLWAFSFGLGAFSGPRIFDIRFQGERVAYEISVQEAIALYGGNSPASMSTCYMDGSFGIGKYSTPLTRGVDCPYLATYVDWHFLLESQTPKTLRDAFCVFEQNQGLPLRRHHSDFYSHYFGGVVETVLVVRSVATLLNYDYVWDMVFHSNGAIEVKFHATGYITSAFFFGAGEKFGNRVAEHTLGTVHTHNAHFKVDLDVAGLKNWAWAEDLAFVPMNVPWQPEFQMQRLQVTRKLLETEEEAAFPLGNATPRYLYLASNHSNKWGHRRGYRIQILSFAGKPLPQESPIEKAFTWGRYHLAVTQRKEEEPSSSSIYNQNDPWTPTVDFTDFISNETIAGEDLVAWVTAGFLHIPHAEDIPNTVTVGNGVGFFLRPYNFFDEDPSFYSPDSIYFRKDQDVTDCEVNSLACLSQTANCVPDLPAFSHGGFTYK
# Assay: (Ex vivo) rat plasma VAP-1 inhibition test after oral administration of the compound
# Type: in vivo
# Settings: 3 hours after oral administration, SD male rats, read-out: inhibition ratio (plasma VAP-1, ex vivo)
# Procedure: (Ex Vivo) Rat Plasma VAP-1 Inhibition Test after Oral Administration of the Compound
# The compound was orally administered (0.3-10 mg/kg) to 7-12 week old SD male rats in the non-fasting state. Under anesthesia, the blood was collected in heparin tubes from the jugular vein before the administration and 3, 8 and 24 hours after the administration. The blood was centrifuged at 14000 rpm for 10 minutes to get plasma. The VAP-1 enzyme activity in the plasma was measured by radiochemical enzyme assay.
# The radiochemical enzyme assay was conducted by modifying the method of P. H. Yu et al. (Diabetologia 40 1243 (1997)). ^14C-benzylamine (2.5 μM) was added to the obtained plasma, and was incubated at 37° C. for 3 hours. The reaction was terminated by the addition of 100 μL of 2 M citric acid solution to the reaction solution. The oxidative product was extracted using a toluene/ethyl acetate mixture and the radioactivity was measured with a liquid scintillation counter. The inhibition ratio of the compound was calculated using the following equation. Inhibition ratio={1−[Plasma VAP-1 activity after administration of the compound]/[Plasma VAP-1 activity before administration]}×100
row,inhibition in vivo at 0.3 mg/kg [%],SMILES
1,≥ 50,"CON=C1CCN(c2ncc(-c3cccc(COC(=O)NC(=N)N)c3F)cn2)CC1 [Example 51, 2-Fluoro-3-{2-[4-(methoxyimino)piperidin-1-yl]pyrimidin-5-yl}benzyl carbamimidoylcarbamate]"
2,≥ 50,"CCON=C1CCN(c2ncc(-c3cccc(COC(=O)NC(=N)N)c3F)cn2)CC1 [Example 53, 3-{2-[4-(Ethoxyimino)piperidin-1-yl]pyrimidin-5-yl}-2-fluorobenzyl carbamimidoylcarbamate]"
3,≥ 50,"N=C(N)NC(=O)OCc1cccc(-c2cnc(N3CC(=NOCC(CO)COC(=O)c4ccccc4)C3)nc2)c1F (stereo not shown) [Example 83, 3-[({1-[5-(3-{[(Carbamimidoylcarbamoyl)oxy]methyl}-2-fluorophenyl)pyrimidin-2-yl]azetidin-3-ylidene}amino)oxy]-2-(hydroxymethyl)propyl benzoate]"
4,≥ 50,"CCOC(=O)CCON=C1CCN(c2ncc(-c3cccc(COC(=O)NC(=N)N)c3F)cn2)CC1 [Example 149, Ethyl 3-[({1-[5-(3-{[(carbamimidoylcarbamoyl)oxy]methyl}-2-fluorophenyl)pyrimidin-2-yl]piperidin-4-ylidene}amino)oxy]propanoate]"
